For one assay, the system named is SARS-CoV-2. As to the kind of experiment: microbe, parasite or virus in culture. In kind it is cell-based. The conditions noted are these: Severe acute respiratory syndrome coronavirus 2, 72 h, read-out: ID50 (Antiviral Data).
The next assay addresses SARS-CoV-2 3CLpro (Severe acute respiratory syndrome coronavirus 2 (2019-nCoV) (SARS-CoV-2), UniProt P0DTD1). As to the kind of experiment: biochemical.
Where [1] appears, read: IC50 (SARS-CoV-2 3CLpro Inhibition).
Setting [2] is: read-out: IC50 (SARS-CoV-2 3CLpro Inhibition).

Like-named read-outs stand apart in the source and are kept apart here.

For the compound `C=CS(=O)(=O)N1CCCC1C(=O)N(c1ccc(C(C)(C)C)cc1)C(C(=O)NC(C)(C)C)c1cccnc1` (stereo not drawn) [Compound 11], the IC50 in the assay with SARS-CoV-2 and against SARS-CoV-2 3CLpro (setting [1]) was more than 100 µM each time.
As for `C=CS(=O)(=O)N1CC[C@@H](C(=O)N(c2ccc(C(C)(C)C)cc2)C(C(=O)NC(C)(C)C)c2cccnc2)C1` (stereo partly drawn) [Compound 13], the IC50 with SARS-CoV-2 and against SARS-CoV-2 3CLpro (setting [1]) was more than 100 µM each time.
Regarding `C=CS(=O)(=O)N1CC[C@@H](C(=O)N(c2ccc(C(C)(C)C)cc2)C(C(=O)NC(C)(C)C)c2cccnc2)C1` (stereo partly drawn) [Compound 14], the IC50 at SARS-CoV-2 3CLpro (setting [2]) is more than 100 µM.
Turning to `C/C=C/C(=O)N1CCCC1C(=O)N(c1ccc(C(C)(C)C)cc1)C(C(=O)NC(C)(C)C)c1cccnc1` (stereo not drawn) [Compound 7], the values for the IC50 in the assay on SARS-CoV-2 and against SARS-CoV-2 3CLpro (setting [1]) were more than 100 µM and 1 to 10 µM, respectively.
As for `C=C(C)C(=O)N1CCCC1C(=O)N(c1ccc(C(C)(C)C)cc1)C(C(=O)NC(C)(C)C)c1cccnc1` (stereo not drawn) [Compound 2], the IC50 with SARS-CoV-2 and against SARS-CoV-2 3CLpro (setting [1]) was more than 100 µM in each case.
In the case of `CCC(=O)N1CCCC1C(=O)N(c1ccc(C(C)(C)C)cc1)C(C(=O)NC(C)(C)C)c1cccnc1` (stereo not drawn) [Compound 5], the IC50 in the assay on SARS-CoV-2 and at SARS-CoV-2 3CLpro (setting [1]) was more than 100 µM throughout.
For `C=CC(=O)N1CCCC1C(=O)N(c1ccc(C(C)(C)C)cc1)C(C(=O)NC(C)(C)C)c1cccnc1` (stereo not drawn) [Compound 1], the IC50 at SARS-CoV-2 3CLpro (setting [2]) was more than 100 µM.
The same measure, in the same setting: the value for `C=C(C)C(=O)N1CCCC1C(=O)N(c1ccc(C(C)(C)C)cc1)C(C(=O)NC(C)(C)C)c1cccnc1` (stereo not drawn) [Compound 4] was more than 100 µM.
On to `C/C=C(\C)C(=O)N1CCCC1C(=O)N(c1ccc(C(C)(C)C)cc1)C(C(=O)NC(C)(C)C)c1cccnc1` (stereo not drawn) [Compound 3], for which the IC50 with SARS-CoV-2 and on SARS-CoV-2 3CLpro (setting [1]) was more than 100 µM throughout.
At SARS-CoV-2 3CLpro (setting [1]), `C/C=C(\C)C(=O)N1CCC[C@@H]1C(=O)N(c1ccc(C(C)(C)C)cc1)C(C(=O)NC(C)(C)C)c1cccnc1` (stereo partly drawn) [Compound 6] had an IC50 of 10.1 to 100 µM.
On to `C=CC(=O)N1CCCC1C(=O)N(c1ccc(C(C)(C)C)cc1)C(C(=O)NC(C)(C)C)c1cccnc1` (stereo not drawn) [Compound 12], for which the IC50 in the assay on SARS-CoV-2 and against SARS-CoV-2 3CLpro (setting [1]) was more than 100 µM in each case.
For the compound `C/C=C/C(=O)N1CCCC1C(=O)N(c1ccc(C(C)(C)C)cc1)C(C(=O)NC(C)(C)C)c1cccnc1` (stereo not drawn) [Compound 8], the IC50 at SARS-CoV-2 3CLpro (setting [1]) was in the range of 10.1 to 100 µM.
Compound `C=CC(=O)N1CC[C@@H](C(=O)N(c2ccc(C(C)(C)C)cc2)C(C(=O)NC(C)(C)C)c2cccnc2)C1` (stereo partly drawn) [Compound 10] had an IC50 against SARS-CoV-2 3CLpro (setting [1]) of 10.1 to 100 µM.
Regarding `C=CC(=O)N1CCC(F)(F)CC1C(=O)N(c1ccc(C(C)(C)C)cc1)C(C(=O)NC(C)(C)C)c1cccnc1` (stereo not drawn) [Compound 15], the IC50 in the assay with SARS-CoV-2 and against SARS-CoV-2 3CLpro (setting [1]) was more than 100 µM throughout.
Take `C=CC(=O)N1CCC(C(=O)N(c2ccc(C(C)(C)C)cc2)C(C(=O)NC(C)(C)C)c2cccnc2)C1` (stereo not drawn) [Compound 9]: the IC50 is more than 100 µM in the assay on SARS-CoV-2 and 10.1 to 100 µM against SARS-CoV-2 3CLpro (setting [1]).
